# Measurements published in PubChem BioAssay (NCI).
#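 Test compounds were applied to cells in 96-well plates for 48 hours at 5 doses. The concentration for full growth arrest is given as TGI.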
# Legend:
# Assay in all cases: DTP human tumour cell line panel, 48 h
# A498 renal = tested on: A498 renal
# A549 NSCLC = tested on: A549 NSCLC
# ACHN renal = tested on: ACHN renal
# CCRF-CEM leukemia = tested on: CCRF-CEM leukemia
# COLO 205 colon = tested on: COLO 205 colon
# DLD-1 colon = tested on: DLD-1 colon
# DMS 273 small cell lung = tested on: DMS 273 small cell lung
# EKVX NSCLC = tested on: EKVX NSCLC
# HCC-2998 colon = tested on: HCC-2998 colon
# HCT-116 colon = tested on: HCT-116 colon
# HCT-15 colon = tested on: HCT-15 colon
# HL-60(TB) leukemia = tested on: HL-60(TB) leukemia
# HOP-18 NSCLC = tested on: HOP-18 NSCLC
# HOP-92 NSCLC = tested on: HOP-92 NSCLC
# HT29 colon = tested on: HT29 colon
# IGROV1 ovarian = tested on: IGROV1 ovarian
# K-562 leukemia = tested on: K-562 leukemia
# KM12 colon = tested on: KM12 colon
# KM20L2 colon = tested on: KM20L2 colon
# LOX IMVI melanoma = tested on: LOX IMVI melanoma
# LXFL 529 NSCLC = tested on: LXFL 529 NSCLC
# M14 melanoma = tested on: M14 melanoma
# M19-MEL melanoma = tested on: M19-MEL melanoma
# MALME-3M melanoma = tested on: MALME-3M melanoma
# MOLT-4 leukemia = tested on: MOLT-4 leukemia
# NCI-H460 lung = tested on: NCI-H460 lung
# NCI-H522 lung = tested on: NCI-H522 lung
# OVCAR-3 ovarian = tested on: OVCAR-3 ovarian
# OVCAR-5 ovarian = tested on: OVCAR-5 ovarian
# OVCAR-8 ovarian = tested on: OVCAR-8 ovarian
# RPMI-8226 leukemia = tested on: RPMI-8226 leukemia
# SF-268 CNS = tested on: SF-268 CNS
# SF-295 CNS = tested on: SF-295 CNS
# SF-539 CNS = tested on: SF-539 CNS
# SK-MEL-2 melanoma = tested on: SK-MEL-2 melanoma
# SK-MEL-28 melanoma = tested on: SK-MEL-28 melanoma
# SK-MEL-5 melanoma = tested on: SK-MEL-5 melanoma
# SK-OV-3 ovarian = tested on: SK-OV-3 ovarian
# SN12C renal = tested on: SN12C renal
# SNB-19 CNS = tested on: SNB-19 CNS
# SNB-75 CNS = tested on: SNB-75 CNS
# SNB-78 CNS = tested on: SNB-78 CNS
# SR leukemia = tested on: SR leukemia
# SW-620 colon = tested on: SW-620 colon
# TK-10 renal = tested on: TK-10 renal
# U251 CNS = tested on: U251 CNS
# UACC-257 melanoma = tested on: UACC-257 melanoma
# UACC-62 melanoma = tested on: UACC-62 melanoma
# UO-31 renal = tested on: UO-31 renal
# XF 498 CNS = tested on: XF 498 CNS
# 786-0 renal = tested on: 786-0 renal
# CAKI-1 renal = tested on: CAKI-1 renal
# DMS 114 small cell lung = tested on: DMS 114 small cell lung
# HOP-62 NSCLC = tested on: HOP-62 NSCLC
# NCI-H226 lung = tested on: NCI-H226 lung
# NCI-H23 lung = tested on: NCI-H23 lung
# OVCAR-4 ovarian = tested on: OVCAR-4 ovarian
# RXF 393 renal = tested on: RXF 393 renal
compound,measurement,setting,value
CC(C)(O)[C@H](CCO)O[Si](c1ccccc1)(c1ccccc1)C(C)(C)C,TGI,A498 renal,30.9 µM
same,TGI,A549 NSCLC,22.1 µM
same,TGI,ACHN renal,19.7 µM
same,TGI,CCRF-CEM leukemia,32.2 µM
same,TGI,COLO 205 colon,29.6 µM
same,TGI,DLD-1 colon,21 µM
same,TGI,DMS 273 small cell lung,24.2 µM
same,TGI,EKVX NSCLC,29.6 µM
same,TGI,HCC-2998 colon,18.1 µM
same,TGI,HCT-116 colon,17.6 µM
same,TGI,HCT-15 colon,20.7 µM
same,TGI,HL-60(TB) leukemia,20.1 µM
same,TGI,HOP-18 NSCLC,11.1 µM
same,TGI,HOP-92 NSCLC,23.5 µM
same,TGI,HT29 colon,24.6 µM
same,TGI,IGROV1 ovarian,25.3 µM
same,TGI,K-562 leukemia,23.7 µM
same,TGI,KM12 colon,25.5 µM
same,TGI,KM20L2 colon,23.9 µM
same,TGI,LOX IMVI melanoma,27.6 µM
same,TGI,LXFL 529 NSCLC,23.8 µM
same,TGI,M14 melanoma,25.8 µM
same,TGI,M19-MEL melanoma,29.3 µM
same,TGI,MALME-3M melanoma,31.5 µM
same,TGI,MOLT-4 leukemia,20 µM
same,TGI,NCI-H460 lung,26.7 µM
same,TGI,NCI-H522 lung,20.1 µM
same,TGI,OVCAR-3 ovarian,23.9 µM
same,TGI,OVCAR-5 ovarian,28.1 µM
same,TGI,OVCAR-8 ovarian,23.8 µM
same,TGI,RPMI-8226 leukemia,49.4 µM
same,TGI,SF-268 CNS,26.7 µM
same,TGI,SF-295 CNS,18.9 µM
same,TGI,SF-539 CNS,27.3 µM
same,TGI,SK-MEL-2 melanoma,28.4 µM
same,TGI,SK-MEL-28 melanoma,29 µM
same,TGI,SK-MEL-5 melanoma,27.2 µM
same,TGI,SK-OV-3 ovarian,24.5 µM
same,TGI,SN12C renal,14 µM
same,TGI,SNB-19 CNS,19.5 µM
same,TGI,SNB-75 CNS,22.9 µM
same,TGI,SNB-78 CNS,29.8 µM
same,TGI,SR leukemia,26.4 µM
same,TGI,SW-620 colon,26.8 µM
same,TGI,TK-10 renal,25.9 µM
same,TGI,U251 CNS,24.9 µM
same,TGI,UACC-257 melanoma,29.7 µM
same,TGI,UACC-62 melanoma,24.1 µM
same,TGI,UO-31 renal,23 µM
same,TGI,XF 498 CNS,20.7 µM
Nc1ccc(N)c2c1C(=O)c1c(N)ccc(N)c1C2=O,TGI,786-0 renal,> 100 µM
same,TGI,A498 renal,> 100 µM
same,TGI,A549 NSCLC,> 100 µM
same,TGI,ACHN renal,> 100 µM
same,TGI,CAKI-1 renal,> 100 µM
same,TGI,CCRF-CEM leukemia,> 68.3 µM
same,TGI,COLO 205 colon,> 100 µM
same,TGI,DLD-1 colon,> 100 µM
same,TGI,DMS 114 small cell lung,> 100 µM
same,TGI,DMS 273 small cell lung,> 100 µM
same,TGI,EKVX NSCLC,> 100 µM
same,TGI,HCC-2998 colon,> 100 µM
same,TGI,HCT-116 colon,> 100 µM
same,TGI,HCT-15 colon,> 100 µM
same,TGI,HL-60(TB) leukemia,> 100 µM
same,TGI,HOP-18 NSCLC,64.7 µM
same,TGI,HOP-62 NSCLC,> 100 µM
same,TGI,HOP-92 NSCLC,> 92.3 µM
same,TGI,HT29 colon,> 100 µM
same,TGI,IGROV1 ovarian,> 100 µM
same,TGI,K-562 leukemia,> 100 µM
same,TGI,KM12 colon,> 100 µM
same,TGI,KM20L2 colon,> 100 µM
same,TGI,LOX IMVI melanoma,> 31.6 µM
same,TGI,M14 melanoma,> 100 µM
same,TGI,M19-MEL melanoma,> 100 µM
same,TGI,MALME-3M melanoma,> 100 µM
same,TGI,MOLT-4 leukemia,> 63.6 µM
same,TGI,NCI-H226 lung,67.8 µM
same,TGI,NCI-H23 lung,> 100 µM
same,TGI,NCI-H460 lung,> 100 µM
same,TGI,NCI-H522 lung,> 89.3 µM
same,TGI,OVCAR-3 ovarian,81.9 µM
same,TGI,OVCAR-4 ovarian,97.4 µM
same,TGI,OVCAR-5 ovarian,> 100 µM
same,TGI,OVCAR-8 ovarian,> 100 µM
same,TGI,RPMI-8226 leukemia,> 100 µM
same,TGI,RXF 393 renal,> 93.5 µM
same,TGI,SF-268 CNS,> 100 µM
same,TGI,SF-295 CNS,> 100 µM
same,TGI,SF-539 CNS,> 88.8 µM
same,TGI,SK-MEL-2 melanoma,> 100 µM
same,TGI,SK-MEL-28 melanoma,> 100 µM
same,TGI,SK-MEL-5 melanoma,> 100 µM
same,TGI,SK-OV-3 ovarian,> 100 µM
same,TGI,SN12C renal,> 100 µM
same,TGI,SNB-19 CNS,> 100 µM
same,TGI,SNB-75 CNS,> 77.7 µM
same,TGI,SNB-78 CNS,> 100 µM
same,TGI,SW-620 colon,> 100 µM
same,TGI,TK-10 renal,> 100 µM
same,TGI,U251 CNS,> 100 µM
same,TGI,UACC-257 melanoma,> 100 µM
same,TGI,UACC-62 melanoma,> 100 µM
same,TGI,UO-31 renal,> 100 µM
same,TGI,XF 498 CNS,> 89.2 µM
